Laboratory results as given in patent publication US6706740B2, “Fungicidal heterocyclic aromatic amides and their compositions, methods of use and preparation” (Dow AgroSciences LLC, priority 1999, dated 2004).

Test system: not given
Experiment: not given
Conditions: not given

First: COc1ccnc(C(=O)Nc2ccc(Oc3ccc(C(F)(F)F)cc3)cn2)c1O [Compound 470]
Second: CSc1nnc(C(=O)Nc2ccc(Oc3cccc(C(F)(F)F)c3)cc2)c(O)n1 [Compound 548]
The melting point of the first is lower: 173 to 175 °C for the first, 261 to 265 °C for the second.

First: O=C(NCc1ccc(Cl)c(Cl)c1)c1ncccc1O [Compound 221]
Second: Cc1ccnc(C(=O)NC2COC(=O)[C@H](Cc3ccccc3)[C@@H](OC(=O)C(C)C)[C@H](C)OC2=O)c1O (stereo partly drawn) [Compound 237]
The melting point of the first is lower: 100 to 101 °C for the first, 122 to 134 °C for the second.

Test system: Rhizoctonia solani (RHIZSO)
Experiment: microbe, parasite or virus in culture
Assay type: cell-based
Conditions: Rhizoctonia solani, read-out: RHIZSO in vitro Growth Inhibition

Compared with COc1ccnc(C(=O)Nc2ccc(Oc3ccc(C(F)(F)F)cc3)cn2)c1O [Compound 470], CSc1nnc(C(=O)Nc2ccc(Oc3cccc(C(F)(F)F)c3)cc2)c(O)n1 [Compound 548] is lower in inhibition at 25 ppm: over 80% for the first, under 80% for the second.

O=C(NCc1ccc(Cl)c(Cl)c1)c1ncccc1O [Compound 221] and Cc1ccnc(C(=O)NC2COC(=O)[C@H](Cc3ccccc3)[C@@H](OC(=O)C(C)C)[C@H](C)OC2=O)c1O (stereo partly drawn) [Compound 237] cannot be ordered by inhibition at 25 ppm: under 80% for the first, under 80% for the second.

Test system: Leptosphaeria nodorum—LEPTNO
Experiment: Glume Blotch of Wheat, in vivo whole plant, 24 Hour Protectant
Conditions: Leptosphaeria; 100 ppm spray, 24 hour protectant, wheat; control of fungal infection vs untreated plants; read-out: LEPTNO in vivo 1 Day Protectant

Compared with O=C(NCc1ccc(Cl)c(Cl)c1)c1ncccc1O [Compound 221], Cc1ccnc(C(=O)NC2COC(=O)[C@H](Cc3ccccc3)[C@@H](OC(=O)C(C)C)[C@H](C)OC2=O)c1O (stereo partly drawn) [Compound 237] is higher in pest or weed control at 100 ppm: under 25% for the first, 25 to 74% for the second.

Same assay, conditions: Leptosphaeria; wheat plants sprayed at 100 ppm, inoculated after 24 hours; control of fungal infection vs untreated plants; read-out: LEPTNO in vivo 1 Day Protectant

COc1ccnc(C(=O)Nc2ccc(Oc3ccc(C(F)(F)F)cc3)cn2)c1O [Compound 470] and CSc1nnc(C(=O)Nc2ccc(Oc3cccc(C(F)(F)F)c3)cc2)c(O)n1 [Compound 548] fall in the same range of pest or weed control at 100 ppm: 25 to 74% for the first, 25 to 74% for the second.

Test system: Erysiphe graminis—ERYSGT
Experiment: Powdery Mildew of Wheat, in vivo whole plant, 24 Hour Protectant
Conditions: Erysiphe; 100 ppm spray, 24 hour protectant, wheat; control of fungal infection vs untreated plants; read-out: ERYSGT in vivo 1 Day Protectant

O=C(NCc1ccc(Cl)c(Cl)c1)c1ncccc1O [Compound 221] and Cc1ccnc(C(=O)NC2COC(=O)[C@H](Cc3ccccc3)[C@@H](OC(=O)C(C)C)[C@H](C)OC2=O)c1O (stereo partly drawn) [Compound 237] cannot be ordered by pest or weed control at 100 ppm: under 25% for the first, under 25% for the second.

Same assay, conditions: Erysiphe; wheat plants sprayed at 100 ppm, inoculated after 24 hours; control of fungal infection vs untreated plants; read-out: ERYSGT in vivo 1 Day Protectant

Compared with COc1ccnc(C(=O)Nc2ccc(Oc3ccc(C(F)(F)F)cc3)cn2)c1O [Compound 470], CSc1nnc(C(=O)Nc2ccc(Oc3cccc(C(F)(F)F)c3)cc2)c(O)n1 [Compound 548] is lower in pest or weed control at 100 ppm: 25 to 74% for the first, under 25% for the second.

Test system: Puccinia recondita—PUCCRT
Experiment: Brown Rust of Wheat, in vivo whole plant, 24 Hour Protectant
Conditions: 100 ppm spray, 24 hour protectant, wheat; control of fungal infection vs untreated plants

In the case of Cc1ccnc(C(=O)NC2COC(=O)[C@H](Cc3ccccc3)[C@@H](OC(=O)C(C)C)[C@H](C)OC2=O)c1O (stereo partly drawn) [Compound 237], the “PUCCRT in vivo 1 Day Protectant” value is reported as “+ +”.

Same assay, conditions: Puccinia; 100 ppm spray, 24 hour protectant, wheat; control of fungal infection vs untreated plants; read-out: PUCCRT in vivo 1 Day Protectant

With O=C(NCc1ccc(Cl)c(Cl)c1)c1ncccc1O [Compound 221] the pest or weed control at 100 ppm was under 25%.

Same assay, conditions: Puccinia; wheat plants sprayed at 100 ppm, inoculated after 24 hours; control of fungal infection vs untreated plants; read-out: PUCCRT in vivo 1 Day Protectant

First: COc1ccnc(C(=O)Nc2ccc(Oc3ccc(C(F)(F)F)cc3)cn2)c1O [Compound 470]
Second: CSc1nnc(C(=O)Nc2ccc(Oc3cccc(C(F)(F)F)c3)cc2)c(O)n1 [Compound 548]
The pest or weed control at 100 ppm of the first is higher: 25 to 74% for the first, under 25% for the second.

Test system: Phytophthora infestans (PHYTIN)
Experiment: microbe, parasite or virus in culture
Assay type: cell-based
Conditions: Phytophthora infestans, read-out: PHYTIN in vitro Growth Inhibition

COc1ccnc(C(=O)Nc2ccc(Oc3ccc(C(F)(F)F)cc3)cn2)c1O [Compound 470] and CSc1nnc(C(=O)Nc2ccc(Oc3cccc(C(F)(F)F)c3)cc2)c(O)n1 [Compound 548] cannot be ordered by inhibition at 25 ppm: under 80% for the first, under 80% for the second.

First: O=C(NCc1ccc(Cl)c(Cl)c1)c1ncccc1O [Compound 221]
Second: Cc1ccnc(C(=O)NC2COC(=O)[C@H](Cc3ccccc3)[C@@H](OC(=O)C(C)C)[C@H](C)OC2=O)c1O (stereo partly drawn) [Compound 237]
The inhibition at 25 ppm of the first is higher: over 80% for the first, under 80% for the second.

Test system: Ustilago maydis (USTIMA)
Experiment: microbe, parasite or virus in culture
Assay type: cell-based
Conditions: Mycosarcoma maydis, read-out: USTIMA in vitro Growth Inhibition

COc1ccnc(C(=O)Nc2ccc(Oc3ccc(C(F)(F)F)cc3)cn2)c1O [Compound 470] and CSc1nnc(C(=O)Nc2ccc(Oc3cccc(C(F)(F)F)c3)cc2)c(O)n1 [Compound 548] cannot be ordered by inhibition at 25 ppm: under 80% for the first, under 80% for the second.

O=C(NCc1ccc(Cl)c(Cl)c1)c1ncccc1O [Compound 221] and Cc1ccnc(C(=O)NC2COC(=O)[C@H](Cc3ccccc3)[C@@H](OC(=O)C(C)C)[C@H](C)OC2=O)c1O (stereo partly drawn) [Compound 237] cannot be ordered by inhibition at 25 ppm: under 80% for the first, under 80% for the second.

Test system: Septoria tritici—SEPTTR
Experiment: Leaf Blotch of Wheat, in vivo whole plant, 24 Hour Protectant
Conditions: Zymoseptoria tritici, 24 h, 100 ppm spray, 24 hour protectant, wheat; control of fungal infection vs untreated plants; read-out: SEPTTR in vivo 1 Day Protectant

Compared with O=C(NCc1ccc(Cl)c(Cl)c1)c1ncccc1O [Compound 221], Cc1ccnc(C(=O)NC2COC(=O)[C@H](Cc3ccccc3)[C@@H](OC(=O)C(C)C)[C@H](C)OC2=O)c1O (stereo partly drawn) [Compound 237] is higher in pest or weed control at 100 ppm: under 25% for the first, 25 to 74% for the second.

Same assay, conditions: Zymoseptoria tritici, 24 h, wheat plants sprayed at 100 ppm, inoculated after 24 hours; control of fungal infection vs untreated plants; read-out: SEPTTR in vivo 1 Day Protectant

COc1ccnc(C(=O)Nc2ccc(Oc3ccc(C(F)(F)F)cc3)cn2)c1O [Compound 470] and CSc1nnc(C(=O)Nc2ccc(Oc3cccc(C(F)(F)F)c3)cc2)c(O)n1 [Compound 548] fall in the same range of pest or weed control at 100 ppm: 25 to 74% for the first, 25 to 74% for the second.

Test system: Stagonospora nodorum (Leptosphaeria nodorum—LEPTNO)
Experiment: In vitro fungal growth inhibition, Stagonospora nodorum (LEPTNO)
Assay type: cell-based
Conditions: Leptosphaeria; 25 ppm in growth medium; read-out: LEPTNO in vitro Growth Inhibition

O=C(NCc1ccc(Cl)c(Cl)c1)c1ncccc1O [Compound 221] and Cc1ccnc(C(=O)NC2COC(=O)[C@H](Cc3ccccc3)[C@@H](OC(=O)C(C)C)[C@H](C)OC2=O)c1O (stereo partly drawn) [Compound 237] cannot be ordered by inhibition at 25 ppm: under 80% for the first, under 80% for the second.

Same assay, conditions: Leptosphaeria; 25 ppm in the growth medium; read-out: LEPTNO in vitro Growth Inhibition

Going from COc1ccnc(C(=O)Nc2ccc(Oc3ccc(C(F)(F)F)cc3)cn2)c1O [Compound 470] to CSc1nnc(C(=O)Nc2ccc(Oc3cccc(C(F)(F)F)c3)cc2)c(O)n1 [Compound 548], the inhibition at 25 ppm falls from over 80% to under 80%.

Test system: Phytophthora infestans—PHYTIN
Experiment: whole plant or invertebrate
Assay type: in vivo
Conditions: Phytophthora, in Solanum lycopersicum, 24 h, read-out: PHYTIN in vivo 1 Day Protectant

Compared with COc1ccnc(C(=O)Nc2ccc(Oc3ccc(C(F)(F)F)cc3)cn2)c1O [Compound 470], CSc1nnc(C(=O)Nc2ccc(Oc3cccc(C(F)(F)F)c3)cc2)c(O)n1 [Compound 548] is higher in pest or weed control at 100 ppm: under 25% for the first, 25 to 74% for the second.

O=C(NCc1ccc(Cl)c(Cl)c1)c1ncccc1O [Compound 221] and Cc1ccnc(C(=O)NC2COC(=O)[C@H](Cc3ccccc3)[C@@H](OC(=O)C(C)C)[C@H](C)OC2=O)c1O (stereo partly drawn) [Compound 237] cannot be ordered by pest or weed control at 100 ppm: under 25% for the first, under 25% for the second.

Test system: Magnaporthe grisea (Pyricularia oryzae—PYRIOR)
Experiment: microbe, parasite or virus in culture
Assay type: cell-based
Conditions: Pyricularia oryzae, read-out: PYRIOR in vitro Growth Inhibition

Going from COc1ccnc(C(=O)Nc2ccc(Oc3ccc(C(F)(F)F)cc3)cn2)c1O [Compound 470] to CSc1nnc(C(=O)Nc2ccc(Oc3cccc(C(F)(F)F)c3)cc2)c(O)n1 [Compound 548], the inhibition at 25 ppm falls from over 80% to under 80%.

First: O=C(NCc1ccc(Cl)c(Cl)c1)c1ncccc1O [Compound 221]
Second: Cc1ccnc(C(=O)NC2COC(=O)[C@H](Cc3ccccc3)[C@@H](OC(=O)C(C)C)[C@H](C)OC2=O)c1O (stereo partly drawn) [Compound 237]
The inhibition at 25 ppm of the first is higher: over 80% for the first, under 80% for the second.

Test system: Mycosphaerella graminicola (Septoria tritici—SEPTTR)
Experiment: In vitro fungal growth inhibition, Mycosphaerella graminicola (SEPTTR)
Assay type: cell-based
Conditions: Zymoseptoria tritici; 25 ppm in growth medium; read-out: SEPTTR in vitro Growth Inhibition

First: O=C(NCc1ccc(Cl)c(Cl)c1)c1ncccc1O [Compound 221]
Second: Cc1ccnc(C(=O)NC2COC(=O)[C@H](Cc3ccccc3)[C@@H](OC(=O)C(C)C)[C@H](C)OC2=O)c1O (stereo partly drawn) [Compound 237]
The inhibition at 25 ppm of the first is higher: over 80% for the first, under 80% for the second.

Same assay, conditions: Zymoseptoria tritici; 25 ppm in the growth medium; read-out: SEPTTR in vitro Growth Inhibition

Compared with COc1ccnc(C(=O)Nc2ccc(Oc3ccc(C(F)(F)F)cc3)cn2)c1O [Compound 470], CSc1nnc(C(=O)Nc2ccc(Oc3cccc(C(F)(F)F)c3)cc2)c(O)n1 [Compound 548] is lower in inhibition at 25 ppm: over 80% for the first, under 80% for the second.
